Drawing on ChEMBL document CHEMBL1909046, “DrugMatrix in vitro pharmacology data”, this text covers IC50 and Ki for 13 molecules.

Experiment [1] has as its target T1, 3-hydroxy-3-methylglutaryl-coenzyme A reductase (Homo sapiens, UniProt P04035).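 Note: enzyme inhibition assay of HMG-CoA reductase using radiolabeled [14C]HMG-CoA as substrate; in other assays of this panel Not Active means under 50% inhibition at 10 µM.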
T1 sequence (P04035 whole entry): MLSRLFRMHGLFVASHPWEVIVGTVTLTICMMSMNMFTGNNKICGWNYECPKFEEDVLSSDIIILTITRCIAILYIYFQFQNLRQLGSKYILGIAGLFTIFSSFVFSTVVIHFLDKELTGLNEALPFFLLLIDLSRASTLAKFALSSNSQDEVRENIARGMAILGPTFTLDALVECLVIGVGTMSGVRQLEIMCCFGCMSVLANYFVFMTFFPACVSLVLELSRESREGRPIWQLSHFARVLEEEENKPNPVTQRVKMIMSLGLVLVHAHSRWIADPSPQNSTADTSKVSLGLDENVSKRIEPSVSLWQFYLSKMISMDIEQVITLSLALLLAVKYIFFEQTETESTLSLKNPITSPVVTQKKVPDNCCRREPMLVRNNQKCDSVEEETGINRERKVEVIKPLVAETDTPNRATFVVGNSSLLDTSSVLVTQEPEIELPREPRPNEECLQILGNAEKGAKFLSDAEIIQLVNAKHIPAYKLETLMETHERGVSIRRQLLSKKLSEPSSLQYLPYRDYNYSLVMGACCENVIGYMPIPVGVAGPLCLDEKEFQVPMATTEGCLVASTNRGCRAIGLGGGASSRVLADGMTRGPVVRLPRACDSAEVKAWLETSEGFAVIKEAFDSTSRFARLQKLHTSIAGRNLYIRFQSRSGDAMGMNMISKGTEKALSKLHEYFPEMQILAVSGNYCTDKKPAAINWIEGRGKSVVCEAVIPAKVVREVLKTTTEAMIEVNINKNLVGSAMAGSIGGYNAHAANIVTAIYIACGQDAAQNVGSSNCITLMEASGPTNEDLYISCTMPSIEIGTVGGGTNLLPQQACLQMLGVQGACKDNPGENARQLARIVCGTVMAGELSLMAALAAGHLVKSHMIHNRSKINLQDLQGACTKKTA
Also noted: species or system Escherichia coli.

For a further experiment, the target named is Glycine receptor (Rattus norvegicus, UniProt P22771+P24524+P07727+P20781). It is filed as cell membranes, Wistar, Spinal cord, Membrane. Note: in other assays of this panel Not Active means under 50% inhibition at 10 µM.
A short description of experiment [2]: DRUGMATRIX: Purinergic P2X radioligand binding (ligand: [3H] alpha, beta-Methylene-ATP). The class given is cell membranes, Oryctolagus cuniculus, New Zealand albino, Urinary bladder, Membrane. The conditions noted are these: Not Active = under 50% inhibition at 10 µM.
In experiment [3] the target is T2, 5-hydroxytryptamine receptor 1A (Rattus norvegicus, UniProt P19327). Note: in other assays of this panel Not Active means under 50% inhibition at 10 µM.
T2 sequence (P19327 whole entry): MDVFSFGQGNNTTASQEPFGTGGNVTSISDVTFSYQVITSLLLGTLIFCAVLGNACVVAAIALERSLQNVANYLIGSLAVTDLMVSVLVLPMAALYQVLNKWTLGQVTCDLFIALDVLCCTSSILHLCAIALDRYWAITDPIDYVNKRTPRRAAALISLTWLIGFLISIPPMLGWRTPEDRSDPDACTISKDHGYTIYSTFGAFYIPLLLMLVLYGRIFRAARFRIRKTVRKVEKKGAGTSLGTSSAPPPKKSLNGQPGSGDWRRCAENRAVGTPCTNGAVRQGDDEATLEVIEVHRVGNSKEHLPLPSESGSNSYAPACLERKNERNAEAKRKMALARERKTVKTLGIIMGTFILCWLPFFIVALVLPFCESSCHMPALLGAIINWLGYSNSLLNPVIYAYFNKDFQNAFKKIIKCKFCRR
It is filed as cell membranes, CHO-K1, Membrane.

Experiment [4] deals with T3, Angiotensin-converting enzyme (Oryctolagus cuniculus, UniProt P12822).
T3 sequence (P12822 whole entry): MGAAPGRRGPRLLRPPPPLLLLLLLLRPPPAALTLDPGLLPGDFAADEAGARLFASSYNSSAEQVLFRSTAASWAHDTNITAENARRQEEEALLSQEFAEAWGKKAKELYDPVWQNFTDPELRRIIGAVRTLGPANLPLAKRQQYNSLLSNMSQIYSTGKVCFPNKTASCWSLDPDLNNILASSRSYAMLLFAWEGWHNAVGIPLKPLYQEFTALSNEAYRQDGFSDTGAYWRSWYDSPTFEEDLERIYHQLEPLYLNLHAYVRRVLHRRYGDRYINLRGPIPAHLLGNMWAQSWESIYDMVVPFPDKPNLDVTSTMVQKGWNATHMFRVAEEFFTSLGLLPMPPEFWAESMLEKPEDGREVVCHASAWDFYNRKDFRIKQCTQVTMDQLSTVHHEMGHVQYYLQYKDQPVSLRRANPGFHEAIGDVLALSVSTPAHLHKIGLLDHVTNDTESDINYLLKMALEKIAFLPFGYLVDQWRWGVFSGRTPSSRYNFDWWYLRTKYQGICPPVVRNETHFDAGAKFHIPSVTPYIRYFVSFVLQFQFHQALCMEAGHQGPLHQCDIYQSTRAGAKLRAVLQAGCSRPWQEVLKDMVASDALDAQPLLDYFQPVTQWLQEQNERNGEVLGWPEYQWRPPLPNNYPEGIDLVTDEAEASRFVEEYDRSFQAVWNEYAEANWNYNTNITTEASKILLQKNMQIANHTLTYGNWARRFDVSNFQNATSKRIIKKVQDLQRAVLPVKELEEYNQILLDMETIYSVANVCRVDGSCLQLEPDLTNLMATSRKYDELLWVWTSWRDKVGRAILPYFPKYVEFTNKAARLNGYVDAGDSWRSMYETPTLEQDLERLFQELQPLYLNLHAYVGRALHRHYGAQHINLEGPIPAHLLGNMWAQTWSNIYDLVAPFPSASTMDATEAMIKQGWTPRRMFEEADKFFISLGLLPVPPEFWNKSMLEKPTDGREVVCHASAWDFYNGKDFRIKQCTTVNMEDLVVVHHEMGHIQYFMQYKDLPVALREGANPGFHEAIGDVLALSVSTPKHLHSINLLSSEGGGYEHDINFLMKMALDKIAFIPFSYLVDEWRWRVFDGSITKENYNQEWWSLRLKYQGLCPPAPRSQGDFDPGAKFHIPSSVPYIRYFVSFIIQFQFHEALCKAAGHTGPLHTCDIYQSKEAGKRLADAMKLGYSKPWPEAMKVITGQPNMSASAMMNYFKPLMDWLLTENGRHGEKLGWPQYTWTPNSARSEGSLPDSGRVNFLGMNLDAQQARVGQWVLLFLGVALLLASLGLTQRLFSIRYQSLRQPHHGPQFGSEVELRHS
Briefly: biochemical. The class given is tissue-based, Lung.

What is called IC50 is the concentration needed to halve the response being measured. Usually Ki stands for a measure of affinity in units of concentration, obtained from inhibition or displacement.

Each structure is given as a SMILES string.

Consider `O=C(O)c1cc(/N=N/c2ccc(S(=O)(=O)Nc3ccccn3)cc2)ccc1O` [SULFASALAZINE], for which the IC50 result (in experiment [1]; against Glycine receptor; in experiment [2]; in experiment [3] (cho-k1); in experiment [4]) was “Not Active” in each case. Also, the Ki result in experiment [2] is “Not Active”.

For `Cc1cccc(C)c1NC(=O)C(C)N` (centres undefined) [TOCAINIDE], the IC50 entry (in experiment [1]; at Glycine receptor; in experiment [2]; in experiment [3] (cho-k1); in experiment [4]) was “Not Active” in each case. The Ki result in experiment [2] is “Not Active”.

Regarding `CO[C@@]12[C@H](COC(N)=O)C3=C(C(=O)C(C)=C(N)C3=O)N1C[C@@H]1N[C@@H]12` [MITOMYCIN], the 50% inhibitory concentration (IC50) result (in experiment [1]; at Glycine receptor; in experiment [2]; in experiment [3] (cho-k1); in experiment [4]) was “Not Active” throughout. In addition, in experiment [2], the Ki entry is listed as “Not Active”.

Take `Nc1nc(N)c2nc(-c3ccccc3)c(N)nc2n1`: the 50% inhibitory concentration (IC50) entry (in experiment [1]; at Glycine receptor; in experiment [2]; in experiment [3] (cho-k1); in experiment [4]) was “Not Active” in each case. Besides, the Ki result in experiment [2] is “Not Active”.

Consider `CC1=C(/C=C/C(C)=C/C=C/C(C)=C/C(=O)O)C(C)(C)CCC1` [TRETINOIN], for which the IC50 result (in experiment [1]; against Glycine receptor; in experiment [2]; in experiment [3] (cho-k1); in experiment [4]) was “Not Active” in each case. Also, the inhibition constant (Ki) entry in experiment [2] is “Not Active”.

Consider `CC[C@@]1(O)C(=O)OCc2c1cc1n(c2=O)Cc2cc3c(CN(C)C)c(O)ccc3nc2-1` [TOPOTECAN], for which the IC50 entry (in experiment [1]; against Glycine receptor; in experiment [2]; in experiment [3] (cho-k1); in experiment [4]) was “Not Active” each time. Besides, the Ki result in experiment [2] was “Not Active”.

Regarding `Cc1ccc(Cl)c(Nc2ccccc2C(=O)O)c1Cl` [MECLOFENAMIC ACID], the IC50 result (in experiment [1]; against Glycine receptor; in experiment [2]; in experiment [3] (cho-k1); in experiment [4]) was “Not Active” throughout. Also, the Ki result in experiment [2] is on record as “Not Active”.

In the case of `CCOc1cc(N)c(Cl)cc1C(=O)NCC1CN(Cc2ccc(F)cc2)CCO1` (centres undefined) [MOSAPRIDE], the 50% inhibitory concentration (IC50) result (in experiment [1]; on Glycine receptor; in experiment [2]; in experiment [3] (cho-k1); in experiment [4]) was “Not Active” in each case. Also, the Ki entry in experiment [2] is recorded as “Not Active”.

As for `CN1C[C@H](CNC(=O)OCc2ccccc2)C[C@@H]2c3cccc4c3c(cn4C)C[C@H]21` [METERGOLINE], the IC50 entry was “Not Active” in experiment [1]; “Not Active” at Glycine receptor; “Not Active” in experiment [2]; 6.17 nM in experiment [3] (read-out: IC50); “Not Active” in experiment [4]. In addition, the inhibition constant Ki result in experiment [2] was “Not Active”; in experiment [3] (read-out: Ki), 3.53 nM.

`C1CCN2C[C@@H]3C[C@@H](CN4CCCC[C@@H]34)[C@H]2C1` [SPARTEINE]: the IC50 result (in experiment [1]; against Glycine receptor; in experiment [2]; in experiment [3] (cho-k1); in experiment [4]) was “Not Active” throughout. Moreover, in experiment [2], the Ki result was “Not Active”.

As for `CO[C@@H]1[C@@H](OC)[C@H](C)[C@@](O)(CC(=O)O)O[C@H]1[C@H](C)[C@H]1O[C@@]2(CC[C@@](C)([C@H]3CC[C@@](C)([C@@H]4O[C@@H]([C@H]5O[C@](C)(O)[C@H](C)C[C@@H]5C)C[C@@H]4O[C@@H]4C[C@H](OC)[C@@H](OC)[C@H](C)O4)O3)O2)C[C@H](O)[C@H]1C.N` [MADURAMICIN], the IC50 entry (in experiment [1]; against Glycine receptor; in experiment [2]; in experiment [3] (cho-k1); in experiment [4]) was “Not Active” in each case. For the same molecule, in experiment [2], the Ki entry was “Not Active”.

Turning to `CN1C(=O)OC(C)(C)C1=O` [TRIMETHADIONE], the IC50 entry (in experiment [1]; against Glycine receptor; in experiment [2]; in experiment [3] (cho-k1); in experiment [4]) was “Not Active” throughout. In addition, in experiment [2], the Ki entry was “Not Active”.

On to `CC1(C)[C@H](C(=O)O)N2C(=O)C[C@H]2S1(=O)=O` [SULBACTAM], for which the IC50 entry (in experiment [1]; at Glycine receptor; in experiment [2]; in experiment [3] (cho-k1); in experiment [4]) was “Not Active” each time. Moreover, the Ki result in experiment [2] was “Not Active”.
